The target of the assay is T1, MAT2A (Homo sapiens, UniProt P31153).
T1 construct: purchased BPS Bioscience (USA) 71401
Nature of the assay: MAT2A inhibitory activity, colorimetric phosphate detection (PiColorLock) enzyme assay. The conditions noted are these: Test Condition 1 or 2 (not stated which per compound); absorbance at 630 nm. Format: biochemical. On the procedure: In vitro assay: Methionine and adenosine triphosphate (ATP) are converted into S-adenosylmethionine (SAM) and inorganic phosphate (pi) via the catalytic action of methionine adenosyltransferase 2A (MAT2A). The produced pi is detected by the PiColorLock™ Phosphate Detection Reagent, which is a colorimetric assay, and the activity of MAT2A can be evaluated according to the amount of pi generated during the enzyme reaction. Each compound was evaluated under Test Condition 1 or 2 as described below.
• Concentration of MAT2A inhibitor: maximum concentration of 50 µM, 5-fold dilution (7 groups in total) • MAT2A concentration: 12 ng/µL • ATP and Met concentration: 100 µM, 80 µM
• Concentration of MAT2A inhibitor: maximum concentration of 1 µM, 3-fold dilution (7 groups in total) • MAT2A concentration: 4 ng/µL • ATP and Met concentration: 300 µM, 150 µM • Reagents: Methionine (catalog number M5308) and ATP (catalog number A2383) were purchased from Sigma-Aldrich (USA). MAT2A (catalog number 71401) was purchased from BPS Bioscience (USA), and PiColorLock™ Phosphate Detection Reagent (catalog number 303-0030) was purchased from Novus (USA).
Assay buffer composition: 50 mM Tris-HCl pH 8.0, 50 mM KCI, 15 mM MgCl2, 0.3 mM EDTA, 0.005 % (w/v) BSA
Experimental procedure: Each compound was diluted 5-fold or 3-fold based on the maximum concentration (5 mM or 1 mM or 0.1 mM) using DMSO. The diluted compounds were diluted 20-fold using assay buffer, and then mixed at a volume ratio of 1:2 with MAT2A (30 ng/µL or 10 ng/µL) diluted with assay buffer and treated for 30 minutes at room temperature. The negative control group is a group untreated with both the MAT2A enzyme and the compound according to an embodiment of the present application, and the positive control group is a group treated only with the MAT2A enzyme and untreated with the compound according to an embodiment of the present application.
In each well of a 384-well plate, 30 µL of the mixed solution and 20 µL of a 1:1 mixed solution of ATP (0.5 mM or 1.5 mM) and Met (0.4 mM or 0.75 mM) were mixed and then treated for 1 hour at room temperature. After the enzyme reaction, 13 µL of a 100:1 mixed solution of PiColorLockTM and Accelerator was treated in each well and reacted for 5 minutes at room temperature. After treating 5 µL of Stabilizer in each well and reacting for 25 minutes at room temperature, the absorbance at 630 nm was measured using SpectraMax M4 (Molecular Devices, USA) to calculate the IC50 value of the compound.
Analysis method: The enzyme activity (%) of each experimental group was calculated as {(average O.D. of compound-treated group - average O.D. of negative control group)/(average O.D. of positive control group - average O.D. of negative control group)} * 100. After preparing a dose-response curve (4-parameter) using the enzyme activity according to the treatment concentration of each compound in GraphPad Prism 9, the 50 % of enzyme inhibitory activity value (IC50) was calculated through non-linear regression analysis. The IC50 results measured for the MAT2A activity inhibitory ability of the compounds according to an embodiment of the present application are shown in Table 2 (+++: more than 1 to 100 nM, ++: more than 100 to 1,000 nM, +: more than 1,000 to 10,000 nM, -: more than 10,000 nM).

Bounds are passed on as bounds.

T1 sequence (P31153 whole entry): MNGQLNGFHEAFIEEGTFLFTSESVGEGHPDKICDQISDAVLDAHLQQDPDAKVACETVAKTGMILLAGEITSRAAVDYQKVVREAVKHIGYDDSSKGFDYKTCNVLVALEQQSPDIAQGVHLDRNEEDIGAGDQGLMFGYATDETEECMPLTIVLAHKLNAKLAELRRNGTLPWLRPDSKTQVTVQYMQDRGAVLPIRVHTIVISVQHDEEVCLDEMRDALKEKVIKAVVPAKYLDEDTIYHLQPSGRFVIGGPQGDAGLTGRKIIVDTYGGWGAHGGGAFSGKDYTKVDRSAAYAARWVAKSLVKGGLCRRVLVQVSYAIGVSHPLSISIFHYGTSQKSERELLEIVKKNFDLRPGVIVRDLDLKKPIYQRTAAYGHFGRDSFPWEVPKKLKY

With `Cc1ncccc1-n1c(=O)c2nccn2c2cc(Cl)c(Br)cc21` (atropisomer, axis not shown; (Ra)) [Example 80, (Ra)-7-bromo-8-chloro-5-(2-methylpyridin-3-yl)imidazo[1,2-a]quinoxalin-4(5H)-one], the IC50 (as a rule, the concentration needed to halve the response being measured) was more than 10 µM.
The compound `Cc1cc2c(cc1C(F)(F)F)n(-c1cccnc1C)c(=O)c1nccn12` (atropisomer, axis not shown; (Ra)) [Example 94, (Ra)-8-methyl-5-(2-methylpyridin-3-yl)-7-(trifluoromethyl)imidazo[1,2-a]quinoxalin4(5H)-one] registered an IC50 of more than 10 µM.
The figure for `Cc1ncccc1-n1c(=O)c2nccn2c2cc(Cl)c(C(F)(F)F)cc21` (atropisomer, axis not shown; (Ra)) [Example 97, (Ra)-8-chloro-5-(2-methylpyridin-3-yl)-7-(trifluoromethyl)imidazo[1,2-a]quinoxalin-4(5H)-one] is more than 10 µM; for `CCc1ncccc1-n1c(=O)c2nccn2c2cc(Cl)c(C(F)(F)F)cc21` (atropisomer, axis not shown; (Ra)) [Example 111, (Ra)-8-chloro-5-(2-ethylpyridin-3-yl)-7-(trifluoromethyl)imidazo[1,2-a]quinoxalin-4(5H)-one] it is more than 10 µM; for `O=c1c2nccn2c2ccc(Cl)cc2n1-c1ccccc1F` [Example 12, 7-chloro-5-(2-fluorophenyl)imidazo[1,2-a]quinoxalin-4(5H)-one] it is more than 10 µM.
The compound `Cc1c(F)cccc1-n1c(=O)c2nccn2c2ccc(OCC(F)(F)F)cc21` [Example 29, 5-(3-fluoro-2-methylphenyl)-7-(2,2,2-trifluoroethoxy)imidazo[1,2-a]quinoxalin-4(5H)-one] showed an IC50 of more than 10 µM.
`CCOc1ccc2c(c1)n(-c1cccc(F)c1C)c(=O)c1nccn12` [Example 31, 7-ethoxy-5-(3-fluoro-2-methylphenyl)imidazo[1,2-a]quinoxalin-4(5H)-one]: the IC50 is more than 10 µM.
In the case of `Cc1ccccc1-n1c(=O)c2nccn2c2ccc(F)cc21` [Example 41, 7-fluoro-5-(o-tolyl)imidazo[1,2-a]quinoxalin-4(5H)-one], the IC50 was in the range of 1 to 10 µM.
`Cc1ccccc1-n1c(=O)c2nccn2c2cnc(Cl)cc21` [Example 42, 3-chloro-5-(o-tolyl)imidazo[1,2-a]pyrido[4,3-e]pyrazin-6(5H)-one] displayed a concentration for half-maximal inhibition (IC50) of more than 10 µM.
As to `N#Cc1ccccc1-n1c(=O)c2nccn2c2ccc(Cl)cc21` [Example 43, 2-(7-chloro-4-oxoimidazo[1,2-a]quinoxalin-5(4H)-yl)benzonitrile], the half-inhibitory concentration (IC50) was more than 10 µM.
With `CS(=O)(=O)Nc1cccc(-n2c(=O)c3nccn3c3ccc(Cl)cc32)c1` [Example 44, N-(3-(7-chloro-4-oxoimidazo[1,2-a]quinoxalin-5(4H)-yl)phenyl)methanesulfonamide], the IC50 lay in the range of 0.001 to 0.1 µM.
`Cc1ccccc1-n1c(=O)c2nccn2c2ccc(C(C)C)nc21` [Example 47, 7-isopropyl-5-(o-tolyl)imidazo[1,2-a]pyrido[2,3-e]pyrazin-4(5H)-one] yielded a 50% inhibitory concentration (IC50) of more than 10 µM.
Compound `Cc1nccnc1-n1c(=O)c2nccn2c2ccc(Cl)cc21` [Example 48, 7-chloro-5-(3-methylpyrazin-2-yl)imidazo[1,2-a]quinoxalin-4(5H)-one] came in with an IC50 of 0.1 to 1 µM.
In turn, `O=c1c2nccn2c2ccc(Cl)cc2n1-c1ccccc1OC(F)(F)F` [Example 50, 7-chloro-5-(2-(trifluoromethoxy)phenyl)imidazo[1,2-a]quinoxalin-4(5H)-one] came in with an IC50 of 1 to 10 µM.
The value for `Cc1cccc(C)c1-n1c(=O)c2nccn2c2ccc(Cl)cc21` [Example 51, 7-chloro-5-(2,6-dimethylphenyl)imidazo[1,2-a]quinoxalin-4(5H)-one] was more than 10 µM.
The figure for `Cc1cccnc1-n1c(=O)c2nccn2c2ccc(Cl)cc21` [Example 53, 7-chloro-5-(3-methylpyridin-2-yl)imidazo[1,2-a]quinoxalin-4(5H)-one] is more than 10 µM.
Compound `CC(=O)c1cnc2c(=O)n(-c3cccnc3C)c3cc(C(F)(F)F)ccc3n12` [Example 59, 1-acetyl-5-(2-methylpyridin-3-yl)-7-(trifluoromethyl)imidazo[1,2-a]quinoxalin-4(5H)-one] registered an IC50 of 1 to 10 µM.
As to `Cc1ncccc1-n1c(=O)c2nc(CN3CCN(C)CC3)cn2c2ccc(Cl)cc21` [Example 61, 7-chloro-2-((4-methylpiperazin-1-yl)methyl)-5-(2-methylpyridin-3-yl)imidazo[1,2-a]quinoxalin-4(5H)-one], the IC50 is more than 10 µM.
The value for `Cc1ncccc1-n1c(=O)c2nc(CN3CCOCC3)cn2c2ccc(Cl)cc21` [Example 62, 7-chloro-5-(2-methylpyridin-3-yl)-2-(morpholinomethyl)imidazo[1,2-a]quinoxalin-4(5H)-one] was 0.1 to 1 µM.
In turn, `Cc1ncccc1-n1c(=O)c2nc(CN3CCC4(CC3)COC4)cn2c2ccc(Cl)cc21` [Example 63, 2-((2-oxa-7-azaspiro[3.5]nonane-7-yl)methyl)-7-chloro-5-(2-methylpyridin-3-yl)imidazo[1,2-a]quinoxalin-4(5H)-one] gave an IC50 of more than 10 µM.
As to `COCCNCc1cn2c(n1)c(=O)n(-c1cccnc1C)c1cc(Cl)ccc12` [Example 64, 7-chloro-2-(((2-methoxyethyl)amino)methyl)-5-(2-methylpyridin-3-yl)imidazo[1,2-a]quinoxalin-4(5H)-one], the IC50 fell in the range of 0.1 to 1 µM.
The figure for `Cc1ccccc1-n1c(=O)c2nccn2c2cc(Br)c(Cl)cc21` [Example 72, 8-bromo-7-chloro-5-(o-tolyl)imidazo[1,2-a]quinoxalin-4(5H)-one] is 1 to 10 µM.
The figure for `Cc1ncccc1-n1c(=O)c2nccn2c2cc(C(F)(F)F)c(Br)cc21` [Example 76, 7-bromo-5-(2-methylpyridin-3-yl)-8-(trifluoromethyl)imidazo[1,2-a]quinoxalin-4(5H)-one] is more than 10 µM; for `Cc1ncccc1-n1c(=O)c2nccn2c2cc(C(F)F)c(Br)cc21` [Example 82, 7-bromo-8-(difluoromethyl)-5-(2-methylpyridin-3-yl)imidazo[1,2-a]quinoxalin-4(5H)-one] it is more than 10 µM; for `Cn1nccc1-n1c(=O)c2nccn2c2cc(Cl)c(Br)cc21` [Example 83, 7-bromo-8-chloro-5-(1-methyl-1H-pyrazol-5-yl)imidazo[1,2-a]quinoxalin-4(5H)-one] it is 1 to 10 µM.
With `Cc1cc2c(cc1Br)n(-c1cccnc1O)c(=O)c1nccn12` [Example 90, 7-bromo-5-(2-hydroxypyridin-3-yl)-8-methylimidazo[1,2-a]quinoxalin-4(5H)-one], the IC50 was more than 10 µM.
`Cc1ncccc1-n1c(=O)c2nccn2c2c(N3CCCC3)cc(Cl)cc21` [Example 104, 7-chloro-5-(2-methylpyridin-3-yl)-9-(pyrrolidine-1-yl)imidazo[1,2-a]quinoxalin-4(5H)-one] returned a half-inhibitory concentration (IC50) of more than 10 µM.
`Cc1ncccc1-n1c(=O)c2nccn2c2c(N(C)C)cc(Cl)cc21` [Example 106, 7-chloro-9-(dimethylamino)-5-(2-methylpyridin-3-yl)imidazo[1,2-a]quinoxalin-4(5H)-one] returned an IC50 of more than 10 µM.
The value for `Cc1ncccc1-n1c(=O)c2nccn2c2c(OC(F)F)cc(C(F)(F)F)cc21` [Example 115, 9-(difluoromethoxy)-5-(2-methylpyridin-3-yl)-7-(trifluoromethyl)imidazo[1,2-a]quinoxalin-4(5H)-one] was 0.1 to 1 µM.
The value for `Cc1ncccc1-n1c(=O)c2nccn2c2c(OCC(F)(F)F)cc(C(F)(F)F)cc21` [Example 117, 5-(2-methylpyridin-3-yl)-9-(2,2,2-trifluoroethoxy)-7-(trifluoromethyl)imidazo[1,2-a]quinoxalin-4(5H)-one] was 0.001 to 0.1 µM.
